Data published in article PMC4594035, “Xenopus borealis as an alternative source of oocytes for biophysical and pharmacological studies of neuronal ion channels” (Scientific Reports, 2015).
Where two headings read alike, the source gives them in different places. Bridge positions count the residues as written; N and C are the ends. Ends that are not written are not given here.

Columns and labels:
[1] = tested on: α1N203C GlyR; conditions: for ΔFmax (maximal fluorescence change) / ΔImax (maximal current change) / Slope, ΔF / Slope, ΔI / EC50: MTS-TAMRA labelled, mean ± s.e.m.; for Slope, ΔF / Slope, ΔI / EC50: n = 4–6; for EC50: −40 mV
Description: (§1) This technique permits the real time monitoring of conformational changes in ion channel domains distant from the gate. It involves introducing a cysteine into the ion channel domain of interest and covalently labelling it with a sulfhydryl-reactive rhodamine derivative such as MTSR. As the quantum efficiency of the rhodamine depends on the hydrophobicity of its environment, protein conformational changes occurring in the immediate vicinity of the attached fluorophore are likely to change the hydrophobicity of its environment and thus produce a fluorescence change. […] Conformational changes at the channel gate are monitored simultaneously using two-electrode voltage-clamp. For these recordings, DNA encoding the α1 GlyR subunit was subcloned into pGEMHE, a plasmid vector optimised for oocyte expression. […] Both sites have previously been characterised extensively using voltage-clamp fluorometry. A C41A mutation was incorporated into the α1 GlyR to eliminate the sole non-crosslinked extracellular sulfhydryl group. Site directed mutagenesis was performed using the QuikChange mutagenesis kit (Stratagene).
(§2) On the day of recording, oocytes were transferred into ND96 and stored on ice. For a subset of experiments, a modified version of the previously described approach[39] for vitelline membrane disruption and removal was performed by incubating oocytes in ND96 containing 0.5 mg/ml protease (protease type VIII from Bacillus licheniformis, Sigma-Aldrich) for 1–1.5 min before labelling. Following this, a sequential wash step was performed by transferring oocytes into fresh ND96 solution five consecutive times. To label with either MTSR or MTS-TAMRA (Toronto Research Chemicals), oocytes were transferred into labelling solution containing 10 μM of either compound in ND96 for 25 s. The oocytes were then washed and stored in ND96 for up to 6 h before recording. All labelling steps were performed on ice.
(§3) We recently described the experimental set up in detail. Briefly, we employed an inverted microscope (Eclipse TE300, Nikon Instruments) equipped with a high-Q tetramethylrhodamine isothiocyanate filter set (Chroma Technology), a Plan Fluor X40 objective (Nikon Instruments) and an H7360-03 photomultiplier detection system (Hamamatsu Photonics) attached to the side port of the microscope. An excitation filter wheel including a shutter and emission filter wheel were controlled through a Lambda 10-2 unit (Sutter Instruments). A Lambda LS 175 W xenon arc lamp served as a light source and was coupled to the microscope via a liquid light guide (Sutter Instruments). The design of the custom-made recording chamber has been described. An automated perfusion system operated by a ValveBank-8 valve controller (AutoMate Scientific) was used for perfusion of the recording chamber. Electrodes were moved by automated ROE-200 micromanipulators coupled to an MPC-200 controller (Sutter Instruments). Cells were voltage-clamped at −40 mV and currents recorded using a Gene Clamp 500B amplifier (Molecular Devices). Current and fluorescence traces were acquired at 200 Hz via a Digidata 1322A interface and pCLAMP 9.2 software.
(§4) All data were analysed using Prism 6.0 (GraphPad Software, San Diego, CA, USA). The Hill equation was fitted to normalised concentration-response curves to obtain the half-maximal response (EC50, IC50, or pH50) and Hill coefficient (nH). Voltage-dependent activation curves were fit with the Boltzmann equation to obtain the V0.5 (the voltage corresponding to half-maximal effect). Data are shown as mean and 95% confidence intervals, and n represents the number of oocytes for a given experiment (taken from at least three different frogs). Most equivalence testing comparing X. laevis and X. borealis oocytes was performed using an unpaired Student’s t-test with 95% confidence intervals.

[2] = tested on: α1R271C GlyR; conditions: MTSR labelled, mean ± s.e.m.; for Slope, ΔF / Slope, ΔI / EC50: n = 4–6; for EC50: −40 mV
Description: as §1, §2, §3, §4

[3] = target: T1, rat ASIC3 (Rattus norvegicus, UniProt O35240); experiment: Inhibition of rat ASIC3 by APETx2, two-electrode voltage-clamp in Xenopus oocytes; format: cell-based; conditions: ND96 with 0.1% fatty acid free-bovine serum albumin, 18–21 °C, mean, n = 9, Supplementary Table S3, read-out: IC50 (half-maximal response)
T1 construct: expressed in transfected cells; host or cells: Xenopus laevis and Xenopus borealis oocytes (cRNA injection)
T1 sequence (O35240 1-533): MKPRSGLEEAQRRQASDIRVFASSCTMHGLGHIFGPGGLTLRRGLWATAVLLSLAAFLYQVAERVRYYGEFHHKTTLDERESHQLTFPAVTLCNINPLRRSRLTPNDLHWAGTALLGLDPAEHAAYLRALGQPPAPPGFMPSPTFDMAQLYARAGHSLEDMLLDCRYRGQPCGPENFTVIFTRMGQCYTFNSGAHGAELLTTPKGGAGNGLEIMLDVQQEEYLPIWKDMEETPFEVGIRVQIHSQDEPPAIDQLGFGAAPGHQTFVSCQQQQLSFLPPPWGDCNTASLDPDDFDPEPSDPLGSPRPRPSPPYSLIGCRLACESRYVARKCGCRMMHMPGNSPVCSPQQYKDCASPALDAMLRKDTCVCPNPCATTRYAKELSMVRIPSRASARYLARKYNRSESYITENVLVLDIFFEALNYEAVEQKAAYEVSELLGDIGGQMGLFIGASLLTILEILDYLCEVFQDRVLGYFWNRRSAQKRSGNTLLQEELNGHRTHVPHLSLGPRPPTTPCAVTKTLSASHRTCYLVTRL
Experimental: (§5) X. laevis (Xenopus Express) and X. borealis (Nasco) oocytes were surgically removed from anaesthetised (Tricaine methanesulfonate, MS-222) female frogs and treated with collagenase (1 mg/ml; Sigma type I) for defolliculation. cRNAs were synthesised using an mMessage mMachine cRNA transcription kit (Ambion Inc., Austin, TX, USA) and injected into stage V–VI oocytes at 4–200 ng per cell. Oocytes were stored at 17 °C in ND96 solution (96 mM NaCl, 1.8 mM CaCl2, 2 mM KCl, 2 mM MgCl2, 5 mM HEPES, pH 7.4) supplemented with 2.5 mM pyruvic acid, 50 μg/mL gentamicin, and either 2.5% horse serum or 0.5 mM theophylline. Membrane currents were recorded 2–10 days after injection under voltage-clamp (Axoclamp 900A or Geneclamp 500B, Molecular Devices, CA, USA) using two standard glass microelectrodes of 0.5–2 MΩ resistance when filled with 3 M KCl solution. Data acquisition and analysis were performed using pCLAMP software (Version 9.2 or 10, Molecular Devices, Sunnyvale, CA, USA). All experiments were performed at room temperature (18–21 °C) in ND96 solution. Experiments containing peptides were performed in ND96 solution containing 0.1% fatty acid free-bovine serum albumin (Sigma). […]
(§6) All data were analysed using Prism 6.0 (GraphPad Software, San Diego, CA, USA). […] For both t-tests, it was assumed data was sampled from Gaussian populations, and P values were calculated from two-tailed tests. […]

[4] = target: α1β2γ2L GABAAR (Homo sapiens, UniProt P14867+P47870); experiment: GABA activation of α1β2γ2L GABAAR, two-electrode voltage-clamp in Xenopus oocytes; format: cell-based; conditions: n = 9–10; for Slope (Hill coefficient): mean
Experimental: (§7) X. laevis (Xenopus Express) and X. borealis (Nasco) oocytes were surgically removed from anaesthetised (Tricaine methanesulfonate, MS-222) female frogs and treated with collagenase (1 mg/ml; Sigma type I) for defolliculation. cRNAs were synthesised using an mMessage mMachine cRNA transcription kit (Ambion Inc., Austin, TX, USA) and injected into stage V–VI oocytes at 4–200 ng per cell. Oocytes were stored at 17 °C in ND96 solution (96 mM NaCl, 1.8 mM CaCl2, 2 mM KCl, 2 mM MgCl2, 5 mM HEPES, pH 7.4) supplemented with 2.5 mM pyruvic acid, 50 μg/mL gentamicin, and either 2.5% horse serum or 0.5 mM theophylline. Membrane currents were recorded 2–10 days after injection under voltage-clamp (Axoclamp 900A or Geneclamp 500B, Molecular Devices, CA, USA) using two standard glass microelectrodes of 0.5–2 MΩ resistance when filled with 3 M KCl solution. Data acquisition and analysis were performed using pCLAMP software (Version 9.2 or 10, Molecular Devices, Sunnyvale, CA, USA). All experiments were performed at room temperature (18–21 °C) in ND96 solution. Experiments containing peptides were performed in ND96 solution containing 0.1% fatty acid free-bovine serum albumin (Sigma). Recordings were performed as previously described for ASICs[30][31], GABAAR[32][33], GlyR[34], KV[6][8][35], and NaV[36] channels.
as §4, with “[…] For both t-tests, it was assumed data was sampled from Gaussian populations,” for “Most equivalence testing comparing X. laevis”, “P values were calculated from two-tailed tests. […]” for “X. borealis oocytes was performed using an unpaired Student’s t-test with 95% confidence intervals.”

[5] = target: α5β2γ2L GABAAR (Homo sapiens, UniProt P31644+P47870); experiment: GABA activation of α5β2γ2L GABAAR, two-electrode voltage-clamp in Xenopus oocytes; format: cell-based; conditions: n = 9–10; for Slope (Hill coefficient): mean
Experimental: as §7
as §4, with “[…] For both t-tests, it was assumed data was sampled from Gaussian populations,” for “Most equivalence testing comparing X. laevis”, “P values were calculated from two-tailed tests. […]” for “X. borealis oocytes was performed using an unpaired Student’s t-test with 95% confidence intervals.”

[6] = target: α5β3γ2L GABAAR (Homo sapiens, UniProt P28472+P31644); experiment: GABA activation of α5β3γ2L GABAAR, two-electrode voltage-clamp in Xenopus oocytes; format: cell-based; conditions: n = 9–10; for Slope (Hill coefficient): mean
Experimental: as §7
as §4, with “[…] For both t-tests, it was assumed data was sampled from Gaussian populations,” for “Most equivalence testing comparing X. laevis”, “P values were calculated from two-tailed tests. […]” for “X. borealis oocytes was performed using an unpaired Student’s t-test with 95% confidence intervals.”

[7] = tested on: NaV1.2; experiment: Inhibition of NaV1.2 by ProTx-I, two-electrode voltage-clamp in Xenopus oocytes; format: cell-based; conditions: 300 nM ProTx-I; depolarisation to –15 mV from holding potential −80 mV; n = 8–9; Fig. 3f; P > 0.05
Experimental: as §5, §6

[8] = tested on: NaV1.5; experiment: Inhibition of NaV1.5 by ProTx-I, two-electrode voltage-clamp in Xenopus oocytes; format: cell-based; conditions: 300 nM ProTx-I; depolarisation to –15 mV from holding potential −80 mV; n = 8–9; Fig. 3f; P > 0.05
Experimental: as §5, §6

[9] = tested on: NaV1.7; experiment: Inhibition of NaV1.7 by ProTx-I, two-electrode voltage-clamp in Xenopus oocytes; format: cell-based; conditions: 300 nM ProTx-I; depolarisation to –15 mV from holding potential −80 mV; n = 8–9; Fig. 3f; P > 0.05
Experimental: as §5, §6

[10] = tested on: NaV channel; conditions: cited from earlier work
Experimental: Two-electrode voltage-clamp electrophysiology recordings were performed to compare the properties of a panel of KV and voltage-gated sodium (NaV) channels heterologously expressed in X. laevis and X. borealis oocytes. […] Conductance-voltage relationship curves obtained for NaV1.2 (Fig. 3c), NaV1.5 (Fig. 3d), and NaV1.7 (Fig. 3e) overlap ...

[11] = read-out: EC50, ΔF (glycine-induced fluorescence change), X. laevis oocytes
[12] = read-out: EC50, ΔI (glycine-induced current), X. borealis oocytes
[13] = read-out: EC50, ΔI (glycine-induced current), X. laevis oocytes
[14] = X. laevis compared with X. borealis oocytes

Chain of α5β2γ2L GABAAR (P31644 32-462): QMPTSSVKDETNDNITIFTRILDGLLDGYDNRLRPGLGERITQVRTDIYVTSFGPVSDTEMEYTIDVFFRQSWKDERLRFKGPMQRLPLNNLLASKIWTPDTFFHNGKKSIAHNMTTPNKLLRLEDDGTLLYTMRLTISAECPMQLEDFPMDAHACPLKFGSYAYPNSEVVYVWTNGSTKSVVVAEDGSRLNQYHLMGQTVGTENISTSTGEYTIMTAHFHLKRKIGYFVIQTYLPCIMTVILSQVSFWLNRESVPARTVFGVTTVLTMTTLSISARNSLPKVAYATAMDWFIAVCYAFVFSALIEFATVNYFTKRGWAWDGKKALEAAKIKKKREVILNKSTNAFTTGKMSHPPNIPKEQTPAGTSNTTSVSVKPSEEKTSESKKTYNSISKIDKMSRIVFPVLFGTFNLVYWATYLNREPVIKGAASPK
Chain of α5β2γ2L GABAAR (P47870 26-512): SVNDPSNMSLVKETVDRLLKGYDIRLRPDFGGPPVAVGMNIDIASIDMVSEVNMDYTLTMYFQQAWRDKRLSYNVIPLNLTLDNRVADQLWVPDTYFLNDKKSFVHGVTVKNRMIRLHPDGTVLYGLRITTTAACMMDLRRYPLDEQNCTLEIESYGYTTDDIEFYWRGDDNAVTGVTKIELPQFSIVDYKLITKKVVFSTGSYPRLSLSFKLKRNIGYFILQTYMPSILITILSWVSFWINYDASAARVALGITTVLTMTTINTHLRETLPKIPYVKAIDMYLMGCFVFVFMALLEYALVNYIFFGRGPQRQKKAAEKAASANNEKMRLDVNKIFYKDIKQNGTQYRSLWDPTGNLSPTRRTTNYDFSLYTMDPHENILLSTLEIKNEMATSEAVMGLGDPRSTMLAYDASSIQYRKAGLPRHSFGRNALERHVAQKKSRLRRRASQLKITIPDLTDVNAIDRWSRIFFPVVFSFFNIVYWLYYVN
Chain of α5β2γ2L GABAAR (P18507 40-475 partner): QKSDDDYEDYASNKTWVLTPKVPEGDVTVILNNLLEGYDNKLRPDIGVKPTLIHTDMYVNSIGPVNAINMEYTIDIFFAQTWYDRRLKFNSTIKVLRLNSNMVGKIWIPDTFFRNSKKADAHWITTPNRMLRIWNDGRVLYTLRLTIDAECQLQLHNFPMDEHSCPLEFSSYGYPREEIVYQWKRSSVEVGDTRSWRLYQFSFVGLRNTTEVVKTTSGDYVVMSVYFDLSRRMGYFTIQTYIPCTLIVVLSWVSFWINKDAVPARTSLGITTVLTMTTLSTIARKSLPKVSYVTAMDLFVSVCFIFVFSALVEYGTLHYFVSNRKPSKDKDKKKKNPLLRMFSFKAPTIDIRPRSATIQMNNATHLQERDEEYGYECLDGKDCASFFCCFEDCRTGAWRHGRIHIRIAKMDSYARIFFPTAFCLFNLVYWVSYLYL
Chain of α5β3γ2L GABAAR (P31644 32-462): as the sequence (P31644 32-462) above
Chain of α5β3γ2L GABAAR (P28472 26-473): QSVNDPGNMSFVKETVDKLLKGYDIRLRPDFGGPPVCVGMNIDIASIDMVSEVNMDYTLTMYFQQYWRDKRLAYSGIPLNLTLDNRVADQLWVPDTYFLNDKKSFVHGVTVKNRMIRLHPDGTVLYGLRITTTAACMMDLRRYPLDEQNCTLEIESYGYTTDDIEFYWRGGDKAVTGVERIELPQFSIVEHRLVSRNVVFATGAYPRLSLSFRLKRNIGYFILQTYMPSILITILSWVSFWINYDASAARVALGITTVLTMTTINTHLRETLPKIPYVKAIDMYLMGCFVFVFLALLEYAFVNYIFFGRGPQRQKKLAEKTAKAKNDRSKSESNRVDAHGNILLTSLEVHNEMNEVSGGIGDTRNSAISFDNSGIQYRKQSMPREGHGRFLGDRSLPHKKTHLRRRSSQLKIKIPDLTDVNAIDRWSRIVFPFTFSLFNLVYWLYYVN
Chain of α5β3γ2L GABAAR (P18507 40-475 partner): as the sequence (P18507 40-475 partner) above
Chain of α1β2γ2L GABAAR (P14867 28-456): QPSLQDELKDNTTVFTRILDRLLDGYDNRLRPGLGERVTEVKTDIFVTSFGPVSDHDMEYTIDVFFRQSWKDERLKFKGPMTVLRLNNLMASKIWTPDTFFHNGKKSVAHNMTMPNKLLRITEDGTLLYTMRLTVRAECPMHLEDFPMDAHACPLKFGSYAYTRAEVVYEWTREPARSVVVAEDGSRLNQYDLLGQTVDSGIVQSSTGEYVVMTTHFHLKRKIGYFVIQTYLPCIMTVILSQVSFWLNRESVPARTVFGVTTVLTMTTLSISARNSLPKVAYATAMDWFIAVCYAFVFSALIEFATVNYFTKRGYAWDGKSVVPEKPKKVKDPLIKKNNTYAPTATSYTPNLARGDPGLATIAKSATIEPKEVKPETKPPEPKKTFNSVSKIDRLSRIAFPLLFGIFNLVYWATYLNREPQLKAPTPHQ
Chain of α1β2γ2L GABAAR (P47870 26-512): as the sequence (P47870 26-512) above
Chain of α1β2γ2L GABAAR (P18507 40-475 partner): as the sequence (P18507 40-475 partner) above

## NCC(=O)O [glycine]
[1]; 10 μM glycine, protease (type VIII, 0.5 mg/ml) 1 min before labelling, n = 7, Fig. 5b
  ΔF after 1 min protease treatment vs untreated oocytes: A significant increase in ΔF was obtained after 1 min treatment with protease for X. borealis, but not X. laevis, oocytes
[1]; X. borealis oocytes
  ΔFmax (maximal fluorescence change): 27.8 ± 4.4%
  ΔImax (maximal current change): 8.0 ± 0.8 µA
  Slope, ΔF: 1.8 ± 0.1
  Slope, ΔI: 1.5 ± 0.1
[1]; X. laevis oocytes
  ΔFmax (maximal fluorescence change): 25.9 ± 4.2%
  ΔImax (maximal current change): 8.4 ± 0.2 µA
  Slope, ΔF: 1.4 ± 0.2
  Slope, ΔI: 1.9 ± 0.2
[1]; [11]
  EC50: 548 ± 25 µM
[1]; [12]
  EC50: 136 ± 8.7 µM
[1]; [13]
  EC50: 145 ± 10 µM
[2]; X. borealis oocytes
  ΔFmax (maximal fluorescence change): 9.0 ± 2.2%
  ΔImax (maximal current change): 2.7 ± 0.5 µA
  Slope, ΔF: 1.0 ± 0.1
  Slope, ΔI: 2.0 ± 0.2
[2]; X. laevis oocytes
  ΔFmax (maximal fluorescence change): 12.2 ± 2.2%
  ΔImax (maximal current change): 3.4 ± 1.7 µA
  Slope, ΔF: 1.3 ± 0.2
  Slope, ΔI: 1.4 ± 0.2
[2]; read-out: EC50, ΔF (glycine-induced fluorescence change), X. borealis oocytes
  EC50: 1010 ± 98 µM
[2]; [11]
  EC50: 872 ± 58 µM
[2]; [12]
  EC50: 1700 ± 104 µM
[2]; [13]
  EC50: 1930 ± 175 µM

## GTACSCGNSKGIYWFYRPSCPTDRGYTGSCRYFLGTCCTPAD (disulfide 4-37, 6-30, 20-38) [APETx2]
[3]; X. borealis oocytes
  IC50: 0.0511 µM
[3]; X. laevis oocytes
  IC50: 0.0647 µM

## NCCCC(=O)O [GABA, γ-aminobutyric acid]
[4]; X. borealis oocytes
  Slope (Hill coefficient): 0.60
[4]; [14]
  Concentration-effect curves for GABA activation, X. laevis vs X. borealis: no difference in the concentration-effect curves
[4]; X. laevis oocytes
  Slope (Hill coefficient): 0.56
[5]; X. borealis oocytes
  Slope (Hill coefficient): 0.74
[5]; [14]
  Concentration-effect curves for GABA activation, X. laevis vs X. borealis: no difference in the concentration-effect curves
[5]; X. laevis oocytes
  Slope (Hill coefficient): 0.49
[6]; X. borealis oocytes
  Slope (Hill coefficient): 0.93
[6]; [14]
  Concentration-effect curves for GABA activation, X. laevis vs X. borealis: no difference in the concentration-effect curves
[6]; X. laevis oocytes
  Slope (Hill coefficient): 0.75

## ProTx-I
[7]
  Inhibition by ProTx-I, X. laevis vs X. borealis: Comparable levels of inhibition between species
[8]
  Inhibition by ProTx-I, X. laevis vs X. borealis: Comparable levels of inhibition between species
[9]
  Inhibition by ProTx-I, X. laevis vs X. borealis: Comparable levels of inhibition between species
[10]
  NaV channel inhibition: potent and non-selective NaV channel inhibitor
